In patent US20100273748A1, “ANTIMICROBIAL THERAPY” (priority 2006, published 2010):

Experiments:
[1] = system: cathelicidin; test: Topical treatment of healthy volunteers' skin, cathelicidin expression; assay type: in vivo, human; details: topical 1,25D3
Method: Patients and treatments. Human skin wounds were collected following informed consent by inducing 5 mm full-thickness wounds in volunteers (n=5) under aseptic conditions with local anesthesia as described. At 24 hours after incision, 4 mm punch biopsies were taken from the site of injury and immediately fixed in formalin for immunostaining or frozen in liquid N2 for subsequent RNA isolation. Intact skin from healthy volunteers served as control (n=4). To examine the effects of topical 1,25D3, healthy skin of volunteers (n=7) was treated once topically with 1,25D3 (1.0 mM) and left under occlusion for 4 days. Vehicle treated contralateral skin served as a control. After treatment, skin biopsies were obtained from both sites, fixed in formalin 10% and embedded in paraffin for immunostaining. All treatments and sample acquisitions, including skin biopsies, were approved by the committees on investigations involving human subjects.
Immunostaining. […] Nuclei were detected with DAPI. After subsequent washings with PBS slides, were mounted in ProLong Anti-Fade reagent (Molecular Probes, Eugene, Oreg.) and evaluated with an Olympus BX41 microscope (Olympus, Melville, N.Y.). […]
NaOH, pH6.0). […] Sections were washed in PBS and detected with biotinylated secondary antibodies (Vector Laboratories, Burlingame, Calif.) and diaminobenzidine substrate (Sigma) per manufacturers' instructions.

[2] = system: acetylated histone H4; test: Histone H4 acetylation in keratinocytes (immunofluorescence, Western blot); assay type: cell-based, human; details: HDACi in the presence of 1,25D3
Method: Panel a; Immunofluorescence staining of acetylated histone H4 protein in NHEK treated with HDACi in the presence or absence of 1,25D3. […] Panel b: Western blot of acetylated histone 4 from keratinocytes treated with the HDACi butyrate or TLR agonists. […] Bar=30 μM.
The abundance of acetylated histone was directly measured to confirm the inhibitory effects of butyrate and TSA on HDACs. […] To determine if changes in histone acetylation occur upon stimulation of keratinocytes with TLR ligands NHEK were stimulated with different TLR ligands and histone acetylation was assessed.

[3] = system: TLR2 protein; test: Western blot of keratinocyte extracts; assay type: cell-based, human; details: 1,25D3 100 nM, monolayer keratinocyte extracts
Method: Western Blot. Primary keratinocytes were stimulated with 1,25D3 (100 nM) or the vehicle for 24 hours and subsequently lysed in ice-cold lysis buffer (1% Triton-X in PBS containing proteinase inhibitors). After centrifugation, equal amounts of protein were mixed with loading buffer (0.25M Tris HCL, 10% SDS, 10% glycerol, 5% β-mercaptoethanol) and loaded onto a 10% Tris-Tricine gel (GeneMate, Kaysville, Utah). After separation, proteins were blotted onto a PVDF membrane (Millipore, Billerica, Mass.) and blocked in 5% milk (BioRad) in TBS 0.1% Tween20 for 1 h at RT. After washings in TBS 0.1% Tween20, membranes were stained with a rabbit polyclonal anti-CD14 (Abcam, Cambridge, Mass.) or an anti TLR2 antibody (eBioscience), washed again in TBS 0.1% Tween20 and reprobed with a HRP-coupled goat anti-rabbit antibody (DakoCytomation, Glostrup, Denmark). Stained protein was visualized using the Western Lightning® system (Perkin Elmer, Boston, Mass.).

[4] = system: Other TLRs and the TLR coreceptor CD36; test: qPCR of other TLRs and CD36 in cultured keratinocytes; assay type: cell-based; details: cultured human keratinocytes exposed to 1,25D3
Method: Cell culture and stimuli. Human keratinocytes were grown in serum-free EpiLife® cell culture media (Cascade Biologics; Portland, Oreg.) containing 0.06 mM Ca2+ and 1× EpiLife® defined growth supplement (EDGS) at 37° C. under standard tissue culture conditions. Stock cultures were maintained for up to five passages in this media with the addition of 50 U/mL penicillin and 50 μg/mL streptomycin. HaCaT keratinocytes were cultured in DMEM (Sigma, St. Louis, Mo.) with 10% FCS. Cells at 50-70% confluence were stimulated in fresh medium after preincubation with 1,25(OH)2 vitamin D3 (1,25D3; 0.1-100 nM, 4-24 h; Sigma). Alternatively, NHEK were stimulated in the presence of 1,25D3 (0.1-100 nM). […]
Real-time RT-PCR (qPCR). […] Expression of cathelicidin and GAPDH was analysed by real-time RT-PCR. […] Fold induction relative to the vehicle treated control in in vitro experiments was calculated using the comparative Ct method, where ΔΔCt is ΔCt(stimulant)-ΔCt(vehicle), ΔCt is Ct(gene)-Ct(GAPDH) and Ct is the cycle at which an arbitrary detection threshold is crossed. For quantification of transcript abundance in tissue samples target gene expression was normalized to GAPDH and compared to non-treated or non-injured skin.

C=C1/C(=C\C=C2/CCC[C@]3(C)[C@@H]([C@H](C)CCCC(C)(C)O)CC[C@@H]23)C[C@@H](O)C[C@@H]1O [1,25D3, 1,25(OH)2 vitamin D3]
cathelicidin expression in skin [1]: increased expression
acetylation of histone H4 [2]: further increased
TLR2 protein expression (Western Blot) [3]: increases expression
expression of other TLRs and CD36 [4]: remained unchanged
